According to ChEMBL document CHEMBL1137846, “Estrogen receptor ligands. Part 7: Dihydrobenzoxathiin SERAMs with bicyclic amine side chains” (Bioorg Med Chem Lett, 2004):

Columns and labels:
Estrogen receptor = target: T1, Estrogen receptor (Homo sapiens, UniProt P03372)
T1 sequence (P03372 whole entry): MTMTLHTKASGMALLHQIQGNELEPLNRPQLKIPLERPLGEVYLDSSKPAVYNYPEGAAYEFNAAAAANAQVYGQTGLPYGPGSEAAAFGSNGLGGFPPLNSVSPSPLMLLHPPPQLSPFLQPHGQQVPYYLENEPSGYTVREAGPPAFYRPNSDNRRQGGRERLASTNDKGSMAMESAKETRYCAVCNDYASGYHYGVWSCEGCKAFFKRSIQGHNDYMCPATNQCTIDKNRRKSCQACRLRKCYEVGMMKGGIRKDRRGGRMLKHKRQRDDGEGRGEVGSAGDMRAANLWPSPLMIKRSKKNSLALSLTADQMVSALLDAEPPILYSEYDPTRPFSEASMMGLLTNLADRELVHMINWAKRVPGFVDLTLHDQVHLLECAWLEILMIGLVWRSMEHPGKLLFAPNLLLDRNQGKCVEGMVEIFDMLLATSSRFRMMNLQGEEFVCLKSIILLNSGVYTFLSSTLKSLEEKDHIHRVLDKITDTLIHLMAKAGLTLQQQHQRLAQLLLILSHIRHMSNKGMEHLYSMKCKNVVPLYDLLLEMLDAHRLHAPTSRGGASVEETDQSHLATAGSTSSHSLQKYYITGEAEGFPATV
Description: Binding potency for human ER alpha

Estrogen receptor beta = Estrogen receptor beta (Homo sapiens, UniProt Q92731)
Chain of Estrogen receptor beta (Q92731 whole entry): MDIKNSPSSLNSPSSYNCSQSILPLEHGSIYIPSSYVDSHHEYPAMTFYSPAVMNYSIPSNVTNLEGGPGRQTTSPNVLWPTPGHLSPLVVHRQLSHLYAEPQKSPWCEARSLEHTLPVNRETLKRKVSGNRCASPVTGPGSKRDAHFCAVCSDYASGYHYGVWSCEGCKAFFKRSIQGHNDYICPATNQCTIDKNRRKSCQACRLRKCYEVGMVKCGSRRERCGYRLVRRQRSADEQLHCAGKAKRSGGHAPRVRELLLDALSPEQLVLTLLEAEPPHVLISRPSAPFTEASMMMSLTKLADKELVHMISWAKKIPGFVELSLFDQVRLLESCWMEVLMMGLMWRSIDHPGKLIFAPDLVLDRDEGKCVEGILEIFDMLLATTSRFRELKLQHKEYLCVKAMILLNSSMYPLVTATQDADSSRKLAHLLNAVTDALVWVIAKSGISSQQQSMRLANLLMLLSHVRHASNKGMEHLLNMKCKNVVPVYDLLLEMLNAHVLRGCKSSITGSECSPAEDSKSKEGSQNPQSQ
Description: Binding potency for human ER beta

MCF7 = experiment: cells; settings: Homo sapiens

Row | IC50 (Estrogen receptor beta) [nM] | IC50 (MCF7) [nM] | Compound | IC50 (Estrogen receptor) [nM]
1 | 33 | 7.7 | Oc1ccc([C@H]2Sc3cc(O)ccc3O[C@H]2c2ccc(OCCN3C[C@H]4CCCC[C@H]4C3)cc2)cc1 | 1
2 | 51 | 2.2 | Oc1ccc([C@H]2Sc3cc(O)ccc3O[C@H]2c2ccc(OCCN3C4CCCC3CC4)cc2)cc1 | 0.6
3 | 33 | 0.4 | Oc1ccc([C@H]2Sc3cc(O)ccc3O[C@H]2c2ccc(OCCN3CC[C@H]4C[C@H]43)cc2)cc1 | –
4 | 56 | 0.5 | Oc1ccc([C@H]2Sc3cc(O)ccc3O[C@H]2c2ccc(OCCN3CC[C@@H]4CC43)cc2)cc1 (single isomer, unassigned) | –
5 | 118 | 3.6 | Oc1ccc([C@H]2Sc3cc(O)ccc3O[C@H]2c2ccc(OCCN3C4CCC3CC4)cc2)cc1 | 0.9
6 | 39 | 29.8 | Oc1ccc([C@H]2Sc3cc(O)ccc3O[C@H]2c2ccc(OCCN3CCC4(CCCC4)CC3)cc2)cc1 | 1.2
7 | 18 | 1.3 | Oc1ccc([C@H]2Sc3cc(O)ccc3O[C@H]2c2ccc(OCCN3C[C@H]4CCC[C@H]4C3)cc2)cc1 | 0.3

Row | Compound | IC50 (Estrogen receptor beta) [nM] | IC50 (MCF7) [nM] | IC50 (Estrogen receptor) [nM]
8 | Oc1ccc([C@H]2Sc3cc(O)ccc3O[C@H]2c2ccc(OCCN3CC4(CCC4)C3)cc2)cc1 | 26 | 0.3 | 0.4
9 | Oc1ccc([C@H]2Sc3cc(O)ccc3O[C@H]2c2ccc(OCCN3CC4CC5CC(C4)CC3C5)cc2)cc1 | 40 | 5.8 | 0.6
10 | Oc1ccc([C@H]2Sc3cc(O)ccc3O[C@H]2c2ccc(OCCN3CC4CCC4C3)cc2)cc1 (some centres not stated) | 85 | 2.5 | 0.8
11 | Oc1ccc([C@H]2Sc3cc(O)ccc3O[C@H]2c2ccc(OCCN3C4CCCC3CCC4)cc2)cc1 | 47 | 3 | 0.6
12 | Oc1ccc([C@H]2Sc3cc(O)ccc3O[C@H]2c2ccc(OCCN3CC4CC3CO4)cc2)cc1 (some centres not stated) | 73 | 3.3 | 0.7
13 | Oc1ccc([C@H]2Sc3cc(O)ccc3O[C@H]2c2ccc(OCCN3CC4CCC3CC4)cc2)cc1 | 52 | 1.6 | 1.3
